Test results taken from US6638921B1, “Pyridoxal-5-phosphate derivatives as HIV integrase inhibitors” (Pharmacor Inc., priority 2002, dated 2003).
Structures can show the parent of a compound that is named as a salt. Where two headings read alike, the source gives them in different places.

Assays:
MT-4 cell line = test: Cytotoxicity assay in vitro (MTT, virus omitted); assay type: cell-based
Procedure: (§1) To evaluate the EC50 of our compounds, various drug concentrations are incubated with the infected cell for six days and then the metabolic activity of the cells is monitored by the MTT assay. (See A. J. Japour et al, Antimicrobial Agents and Chemotherapy, 37, 1095-1101, 1993 and R. Pauwels et al. Journal of Virological Methods, 20, 309-321, 1988).
(§2) We use the laboratory viral strain NL4.3 as wild type virus and the cell line used is MT-4 which is a T-cell line highly sensitive to HIV-1. We also use some WT clinical strains. To address the resistance issue we assay the inhibitors with NL4.3 mutants which are designed to be resistant to specific commercially available inhibitors. The following reagents were obtained through the AIDS Research and Reference Reagent Program, division of AIDS, NIAID, NIH: pNL4.3 from Dr. Malcolm Martin; MT-4 cell line from Dr. Douglas Richman. Wild type (WT) clinical strains were obtained from “Laboratoire de santé publique du Québec”.
The same MTT assay is used to evaluate the CCIC50 of our compounds except that the virus is omitted.

[1] = test system: HIV-1 laboratory viral strain NL4.3; test: Anti-viral assay in vitro (MTT, infected MT-4 cells); assay type: cell-based; conditions: reduce virus replication in cell culture by 50%, six days
Procedure: as §1, §2

HIV-1 integrase = HIV-1 integrase (Human immunodeficiency virus type 1 group M subtype B, UniProt P12497); test: HIV-1 integrase inhibition assay in vitro (radiolabeled duplex substrate, U5 end of HIV LTR); assay type: biochemical
Procedure: For the purpose of Table 1, the HIV-1 integrase inhibition assay was carried out following a known procedure (Burke, Jr. T. R. et al., J. Med. Chem. 38, 4171-4178 (1995)). A suitable radiolabeled duplex substrate corresponding to the U5 end of the HIV LTR was used.

[2] = Human immunodeficiency virus 1, MT4, 144 h
[3] = IC50, concentration of drug required to reduce the enzyme activity by 50%

Compound | CCIC50 (MT-4 cell line; human, 6 days) [µM] | EC50 [1, 2] [µM] | IC50 (HIV-1 integrase; [3]) [µM] | CCIC50 (MT-4 cell line; reduce cell survival by 50%, MTT assay, virus omitted) [µM] | EC50 ([1]; read-out: EC50) [µM] | IC50 (HIV-1 integrase; concentration of drug required to reduce the enzyme activity by 50%, read-out: IC50) [µM] | EC50 [1] [µM]
Cc1nc(N=Nc2cccc(S(=O)(=O)N3CCOCC3)c2)c(COP(=O)(O)O)c(C=O)c1O [Example 27, 6-[3-(Morpholinesulfamoyl)phenylazo]-pyridoxal-5-phosphate] | >100 | 27.5 | 1.1 |  |  |  | 
Cc1nc(N=Nc2cccc(C(=O)Nc3cccnc3)c2)c(COP(=O)(O)O)c(C=O)c1O [Example 28, 6-[3-(3-Pyridylcarbamoyl)phenylazo]-pyridoxal-5-phosphate] | 50 | 6.25 | 3.25 |  |  |  | 
Cc1nc(N=Nc2cccc(C(=O)Nc3ccccn3)c2)c(COP(=O)(O)O)c(C=O)c1O [Example 29, 6-[3-(2-Pyridylcarbamoyl)phenylazo]-pyridoxal-5-phosphate] | >100 | 24 | 3.85 |  |  |  | 
Cc1nc(N=Nc2cccc(C(=O)Nc3ccncc3)c2)c(COP(=O)(O)O)c(C=O)c1O [Example 30, 6-[3-(4-Pyridylcarbamoyl)phenylazo]-pyridoxal-5-phosphate] | 87 | 20 | 3.15 |  |  |  | 
Cc1nc(N=Nc2cccc(C(=O)Nc3cccc4cnccc34)c2)c(COP(=O)(O)O)c(C=O)c1O [Example 31, 6-[3-(5-Isoquinolylcarbamoyl)phenylazo]-pyridoxal-5-phosphate] | >100 | 15 | 3.25 |  |  |  | 
Cc1nc(N=Nc2cccc(C(=O)Nc3cccc4c3CCCN4)c2)c(COP(=O)(O)O)c(C=O)c1O [Example 37, 6-[3-(5-(1,2,3,4-Tetrahydroquinolyl)carbamoyl)phenylazo]-pyridoxal-5-phosphate] | 84 | 26 | 3.3 |  |  |  | 
Cc1ccc(C(=O)O)cc1N=Nc1nc(C)c(O)c(C=O)c1COP(=O)(O)O [Example 38, 6-(5-Carboxy-2-methylphenylazo)-pyridoxal-5-phosphate] | >100 | 50 | 2.3 |  |  |  | 
Cc1nc(N=Nc2cccc(C(=O)O)c2Cl)c(COP(=O)(O)O)c(C=O)c1O [Example 39, 6-(3-Carboxy-2-chlorophenylazo)-pyridoxal-5-phosphate] | >100 | 1.8 | 2.6 |  |  |  | 
Cc1nc(N=Nc2cc(C(=O)O)ccc2Cl)c(COP(=O)(O)O)c(C=O)c1O [Example 40, 6-(5-Carboxy-2-chlorophenylazo)-pyridoxal-5-phosphate] |  |  |  | >100 | 17 | 3.35 | 
Cc1nc(N=Nc2cc(F)c(F)c(C(=O)O)c2F)c(COP(=O)(O)O)c(C=O)c1O [Example 41, 6-(3-Carboxy-2,4,5-trifluorophenylazo)-pyridoxal-5-phosphate] | >100 | 14 | 2 |  |  |  | 
Cc1nc(N=Nc2cccc(C(=O)O)c2C(=O)O)c(COP(=O)(O)O)c(C=O)c1O [Example 47, 6-(2,3-Dicarboxyphenylazo)-pyridoxal-5-phosphate] | 17 | 10 | 0.165 |  |  |  | 
Cc1nc(N=Nc2ccccc2C(=O)O)c(COP(=O)(O)O)c(C=O)c1O [Example 48, 6-(2-Carboxyphenylazo)-pyridoxal-5-phosphate] | >100 | > 20 | 0.345 |  |  |  | 
Cc1nc(N=Nc2cc(C(=O)O)cc(C(=O)O)c2)c(COP(=O)(O)O)c(C=O)c1O [Example 49, 6-(3,5-Dicarboxyphenylazo)-pyridoxal-5-phosphate Methanesulfonic Acid Salt] | 12 |  | 0.5 |  |  |  | 0.275
Cc1nc(N=Nc2cc(C(=O)O)cc(C(=O)O)c2)c(COP(=O)(O)O)c(C=O)c1O [Example 50, 6-(3,5-Dicarboxyphenylazo)-pyridoxal-5-phosphate Penta-potassium Salt] | >100 |  | 0.47 |  |  |  | 5
CCOC(OCC)c1c(O)c(C)nc(N=Nc2cc(C(=O)O)cc(C(=O)O)c2)c1COP(=O)(O)O [Example 51, 6-(3,5-Dicarboxyphenylazo)-pyridoxal-5-phosphate Diethylacetal] | >100 | 0.35 | 0.125 |  |  |  | 
Cc1nc(N=Nc2cc(C(=O)O)cc(C(=O)O)c2)c(COP(=O)(O)O)c(C=NO)c1O [Example 52, 6-(3,5-Dicarboxyphenylazo)-pyridoxal-5-phosphate Oxime] | 60 | 15 | 8.75 |  |  |  | 
